Drawing on PubChem BioAssay (NCI), this text covers TGI for 40 compounds.

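A five-concentration, 48-hour dose response in 96-well plates underlies each endpoint, interpolated linearly between surrounding concentrations. TGI: total growth inhibition.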

For the first assay, the system named is NCI-H522 lung. Kind of assay: NCI anticancer screen, dose series, 48 h.
Compound `COC1(OC)CCc2c(sc3ncnc(Nc4cccc(Br)c4)c23)C1` yielded a TGI of 30.3 µM.

For `C=CCC(CCC(C)=O)(C(=O)OCC)C(=O)OCC`, the TGI was greater than 100 µM.

As to `CC(C)C(Cl)CCC(C)(Cl)C(=O)CBr` (centres undefined), the TGI is 3.34 µM.

`Clc1ccc(C=Nc2ccc(Oc3ccc(Cl)cc3)c(Cl)c2)cc1` had a TGI of 32.3 µM.

Regarding `N#Cc1ccccc1OCCOc1ccccc1C#N`, the TGI was greater than 100 µM.

With `O=[N+]([O-])c1ccc(/C=N/Nc2nc3ccccc3[nH]2)o1`, the TGI turned out to be 41.2 µM.

Turning to `Cc1cccc2sc(NC(=O)NS(=O)(=O)n3cnc4ccccc43)nc12`, the TGI is 62.9 µM.

In turn, `NNc1nnc(CCCCCCCCc2nnc(NN)n2N)n1N` returned a TGI greater than 100 µM.

With `COc1ccc2nc3c(c(N)c2c1)C1CCC3C1(C)C` (centres undefined), the TGI was greater than 100 µM.

Compound `C[C@H]1CC[C@@]2(OC1)O[C@H]1C[C@H]3[C@@H]4CC[C@@H]5C[C@@H](OC6OC(CO)C(O)C(O)C6OC6OC(CO)C(O)C(O)C6O)CC[C@]5(C)[C@H]4CC[C@]3(C)[C@H]1[C@@H]2C` (some centres undefined) showed a TGI of 4.75 µM.

Consider `O=C(NCCC1CNc2ccccc21)OCc1ccccc1` (centres undefined), for which the TGI was greater than 100 µM.

Compound `CCN1/C(=C/C#C/C(C)=C\c2sc3ccc(Cl)cc3[n+]2CC)Sc2ccc(Cl)cc21` showed a TGI of 6.02 µM.

For the compound `CSc1nncc(-c2cc3c(c(SC)n2)CCCC3)n1`, the TGI was greater than 100 µM.

`Cc1nc2sc3cccc(Cl)c3n2c(=O)c1N=Nc1ccc(Cl)cc1`: the TGI was greater than 100 µM.

Regarding `Cc1cc(N(CCC#N)CCC#N)ccc1/C(N=Nc1ccccc1)=N\NC(=O)c1cc(Cl)ccc1O`, the TGI came out at 31 µM.

As for `COC(=O)[C@@H]1CO[C@H](C(C)(C)C)N1C(=O)N1C=CC(=O)C[C@H]1C`, the TGI is greater than 100 µM.

The compound `Cn1c(CNc2ccc(-c3n[nH]c(=S)n3C)cc2)n[nH]c1=S` gave a TGI greater than 100 µM.

`COc1cc(C2c3cc4c(cc3OC(NN)C2C)OCO4)cc(OC)c1O` (centres undefined): the TGI amounted to 42.2 µM.

For `Cc1ccc(N=N/C(=N/NC(=O)c2ccccc2)c2ccc(N(CCC#N)CCC#N)cc2C)cc1`, the TGI is 42.2 µM.

For `COc1ccc(CCCCNCc2cccc(CNCCCCc3ccc(OC)cc3)c2)cc1`, the TGI was 3.5 µM.

As to `CC1(C)O[C@@H]2[C@@H](COC(C)(C)O[C@H]2C2SCCCS2)O1`, the TGI was greater than 100 µM.

`N#Cc1sc2nc3ccccc3n2c1N` yielded a TGI greater than 100 µM.

As to `O=C(O)CCCc1ccc2c(c1)CC1(C2)Cc2cc3c(cc2C1)CCCC3`, the TGI amounted to 47 µM.

The compound `CN(NC1=NCCO1)c1ccc2ccccc2c1` gave a TGI greater than 100 µM.

`COC(=O)/C=C/c1ccc(OP(=O)(O)O)c(OC)c1` returned a TGI greater than 100 µM.

`CCOC(=O)C1(C/C=C\CBr)CCCC1=O` (centres undefined) showed a TGI of 46.8 µM.

In the case of `Cc1cc(O)c(/C=N/C(N)=S)c(=O)o1`, the TGI is greater than 100 µM.

With `Cc1[nH]n(-c2nc3c(c(=O)[nH]2)CCCC3)c(=O)c1CCO`, the TGI was greater than 100 µM.

`O=C(NCCN(CCNC(=O)c1cccc(O)c1O)CCNC(=O)c1cccc(O)c1O)c1cccc(O)c1O` had a TGI of 15.4 µM.

The compound `COc1cc2nc(Cl)nc(NS(=O)(=O)c3cc4ccccc4s3)c2cc1OC` had a TGI of 74.6 µM.

`COC(=O)/C=C(\C(=O)OC)c1cc(C)c2cc(C(C)C)ccc(C)c1-2` came in with a TGI of 50.3 µM.

In turn, `CC(C)(C)OC(=O)N(CCCCNC(=O)C(F)(F)F)CCCNC(=O)C(F)(F)F` yielded a TGI greater than 100 µM.

In turn, `O=c1c(-c2ccccc2)nnc2n(Cc3ccccc3)c3ccccc3n12` showed a TGI greater than 100 µM.

Consider `C=CCON(C(=O)OC(C)(C)C)C(C)(C)C`, for which the TGI was greater than 100 µM.

In the case of `Cc1cc2nc3c(C#N)c(-c4ccccc4)/c(=C\Nc4ccc(F)cc4)c(=O)n3c2cc1C`, the TGI was greater than 100 µM.

Consider `COc1cc([C@@H]2c3cc4c(cc3[C@@H](Nc3ccc(NC(=O)c5cc([N+](=O)[O-])cn5C)cc3)[C@H]3COC(=O)[C@H]23)OCO4)cc(OC)c1O`, for which the TGI was greater than 100 µM.

Another assay relates to SNB-75 CNS. Kind of assay: NCI anticancer screen, dose series, 48 h.
`COC1(OC)CCc2c(sc3ncnc(Nc4cccc(Br)c4)c23)C1` gave a TGI of 83.2 µM.

On to `C=CCC(CCC(C)=O)(C(=O)OCC)C(=O)OCC`, for which the TGI was greater than 100 µM.

Take `CC(C)C(Cl)CCC(C)(Cl)C(=O)CBr` (centres undefined): the TGI stood at 32.3 µM.

`Clc1ccc(C=Nc2ccc(Oc3ccc(Cl)cc3)c(Cl)c2)cc1` registered a TGI of 52.6 µM.

Regarding `N#Cc1ccccc1OCCOc1ccccc1C#N`, the TGI was greater than 100 µM.

Consider `CCOC(=O)c1cn(CC)c(=O)n2c1nc1ccccc12`, for which the TGI was greater than 100 µM.

`O=[N+]([O-])c1ccc(/C=N/Nc2nc3ccccc3[nH]2)o1` displayed a TGI of 36.4 µM.

The compound `Cc1cccc2sc(NC(=O)NS(=O)(=O)n3cnc4ccccc43)nc12` yielded a TGI of 63.3 µM.

Compound `NNc1nnc(CCCCCCCCc2nnc(NN)n2N)n1N` displayed a TGI greater than 100 µM.

`COc1ccc2nc3c(c(N)c2c1)C1CCC3C1(C)C` (centres undefined) yielded a TGI greater than 100 µM.

In turn, `C[C@H]1CC[C@@]2(OC1)O[C@H]1C[C@H]3[C@@H]4CC[C@@H]5C[C@@H](OC6OC(CO)C(O)C(O)C6OC6OC(CO)C(O)C(O)C6O)CC[C@]5(C)[C@H]4CC[C@]3(C)[C@H]1[C@@H]2C` (some centres undefined) displayed a TGI of 4.07 µM.

`CCN1/C(=C/C#C/C(C)=C\c2sc3ccc(Cl)cc3[n+]2CC)Sc2ccc(Cl)cc21`: the TGI was found to be 9.98 µM.

As to `CSc1nncc(-c2cc3c(c(SC)n2)CCCC3)n1`, the TGI is greater than 100 µM.

As for `Cc1nc2sc3cccc(Cl)c3n2c(=O)c1N=Nc1ccc(Cl)cc1`, the TGI is greater than 100 µM.

Compound `Cn1c2ccccc2c(=O)c2c(O)cc3c(c21)C1OCC(C)(O)C1O3` (centres undefined) had a TGI of 56 µM.

The compound `Cc1cc(N(CCC#N)CCC#N)ccc1/C(N=Nc1ccccc1)=N\NC(=O)c1cc(Cl)ccc1O` displayed a TGI greater than 100 µM.

In turn, `COC(=O)[C@@H]1CO[C@H](C(C)(C)C)N1C(=O)N1C=CC(=O)C[C@H]1C` came in with a TGI greater than 100 µM.

In the case of `Cn1c(CNc2ccc(-c3n[nH]c(=S)n3C)cc2)n[nH]c1=S`, the TGI is greater than 100 µM.

With `COc1cc(C2c3cc4c(cc3OC(NN)C2C)OCO4)cc(OC)c1O` (centres undefined), the TGI is greater than 100 µM.

Compound `Cc1ccc(N=N/C(=N/NC(=O)c2ccccc2)c2ccc(N(CCC#N)CCC#N)cc2C)cc1` returned a TGI greater than 100 µM.

The compound `Cc1ccc(S[C@@](C=O)(NC(=O)OCc2ccccc2)C(F)(F)F)cc1` displayed a TGI of 80 µM.

`COc1ccc(CCCCNCc2cccc(CNCCCCc3ccc(OC)cc3)c2)cc1` registered a TGI of 3.38 µM.

For `CC(SC(=S)N1CCOCC1)C(=O)Nc1nnc(-c2ccc(Cl)cc2)o1` (centres undefined), the TGI is greater than 100 µM.
